The test concerns the target RibD-enolase complex (RibD activity) (Francisella tularensis, UniProt A0Q460). The conditions noted are these: substrate generated in situ from GTP by E. coli RibA; with and without PEP.

Structures are written as SMILES.

`Nc1nc(N[C@@H]2O[C@H](COP(=O)(O)O)[C@@H](O)[C@H]2O)c(N)c(=O)[nH]1` [2,5-diamino-6-ribosyl-amino-4(3H) pyrimidinedione 5′-phosphate]: the “fluorescence of the RibD reaction product (ex 408 nm, em 485 nm)” value was “Results showed similar activity for both, with PEP having the same effect on each”.

The values above are taken from paper PMC12742849 (Protein & Cell, 2025).
